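The compound was tested at five concentrations on cells cultured in 96-well plates, with a 48-hour exposure period. The concentration for full growth arrest is given as TGI.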
Assays:
Test in all cases: NCI tumour cell line growth inhibition, 48 h
HCC-2998 colon = tested on: HCC-2998 colon
K-562 leukemia = tested on: K-562 leukemia
OVCAR-8 ovarian = tested on: OVCAR-8 ovarian
PC-3 prostate = tested on: PC-3 prostate
SF-539 CNS = tested on: SF-539 CNS
LOX IMVI melanoma = tested on: LOX IMVI melanoma
SW-620 colon = tested on: SW-620 colon
NCI-H522 lung = tested on: NCI-H522 lung
OVCAR-5 ovarian = tested on: OVCAR-5 ovarian
SNB-75 CNS = tested on: SNB-75 CNS

In the case of `CC(=O)C(C(C)=O)[C@@H]1OC(C)(C)O[C@@H]1[C@H]1COC(C)(C)O1`, the TGI (HCC-2998 colon) is reported as > 100 µM, the TGI (K-562 leukemia) is reported as > 100 µM and the TGI (OVCAR-8 ovarian) is reported as > 100 µM. The TGI (PC-3 prostate) was > 100 µM, the TGI (SF-539 CNS) was > 100 µM and the TGI (LOX IMVI melanoma) was > 100 µM. The TGI (SW-620 colon) was > 100 µM, the TGI (NCI-H522 lung) was 81.2 µM and the TGI (OVCAR-5 ovarian) was > 100 µM.

For `N#Cc1cc(Sc2ccc(N)c(C#N)c2)ccc1N`, the TGI (K-562 leukemia) was 60.2 µM, the TGI (OVCAR-8 ovarian) was 55.2 µM and the TGI (PC-3 prostate) was > 100 µM. For the same compound, the TGI (SF-539 CNS) was 27.9 µM, the TGI (LOX IMVI melanoma) was 51.7 µM and the TGI (SW-620 colon) was > 100 µM. The TGI (OVCAR-5 ovarian) was > 100 µM.

With `CC(C)C(=O)/C=C/S/C=C/C(=O)C(C)C` the TGI (SNB-75 CNS) was > 100 µM, the TGI (OVCAR-8 ovarian) was 6.48 µM and the TGI (SF-539 CNS) was 60.2 µM. For the same compound, the TGI (LOX IMVI melanoma) was 11.1 µM, the TGI (SW-620 colon) was 17 µM and the TGI (NCI-H522 lung) was 3.62 µM. It also gave a TGI (OVCAR-5 ovarian) of 22.1 µM.

In the case of `Nn1c(=O)[nH]c2ncn(Cc3ccccc3)c2c1=O`, the TGI (HCC-2998 colon) is reported as > 100 µM, the TGI (SNB-75 CNS) is reported as > 100 µM and the TGI (K-562 leukemia) is reported as > 100 µM. The TGI (OVCAR-8 ovarian) was > 100 µM, the TGI (PC-3 prostate) was > 100 µM and the TGI (SF-539 CNS) was > 100 µM. For the same compound, the TGI (SW-620 colon) was > 100 µM, the TGI (NCI-H522 lung) was > 100 µM and the TGI (OVCAR-5 ovarian) was > 100 µM.

With `CCN(CC)CC1CN=C(N)O1` (stereo not drawn) the TGI (HCC-2998 colon) was > 100 µM, the TGI (SNB-75 CNS) was > 100 µM and the TGI (K-562 leukemia) was > 100 µM. The TGI (OVCAR-8 ovarian) was > 100 µM, the TGI (PC-3 prostate) was > 100 µM and the TGI (SF-539 CNS) was > 100 µM. The TGI (LOX IMVI melanoma) was > 100 µM, the TGI (SW-620 colon) was > 100 µM and the TGI (OVCAR-5 ovarian) was > 100 µM.

`Cn1c2ccccc2c2cc(N3CCCC3)c3c(c21)C(=O)N(c1ccccc1)C3=O` was tested, and the TGI (HCC-2998 colon) was > 100 µM, the TGI (SNB-75 CNS) was > 100 µM and the TGI (K-562 leukemia) was > 100 µM. The TGI (OVCAR-8 ovarian) was > 100 µM, the TGI (PC-3 prostate) was > 100 µM and the TGI (LOX IMVI melanoma) was > 100 µM. For the same compound, the TGI (SW-620 colon) was > 100 µM, the TGI (NCI-H522 lung) was > 100 µM and the TGI (OVCAR-5 ovarian) was > 100 µM.

In the case of `C/C=C(\C)C(=O)O[C@@H]1CC(C)(C)CC2C3=CCC4[C@]56CC[C@](O)(OC5)C(C)(C)C6CC[C@@]4(C)C3(C)CC[C@]21C(=O)O` (stereo partly drawn), the TGI (HCC-2998 colon) is reported as > 100 µM, the TGI (K-562 leukemia) is reported as > 100 µM and the TGI (OVCAR-8 ovarian) is reported as > 100 µM. For the same compound, the TGI (PC-3 prostate) was > 100 µM, the TGI (SF-539 CNS) was > 100 µM and the TGI (LOX IMVI melanoma) was > 100 µM. For the same compound, the TGI (SW-620 colon) was > 100 µM, the TGI (NCI-H522 lung) was > 100 µM and the TGI (OVCAR-5 ovarian) was > 100 µM.

With `O=C(CN1CCCCC1)Nc1ccc2c(c1)C1Oc3ccccc3CC1CO2` (stereo not drawn) the TGI (HCC-2998 colon) was 34.4 µM, the TGI (K-562 leukemia) was > 100 µM and the TGI (OVCAR-8 ovarian) was > 100 µM. For the same compound, the TGI (PC-3 prostate) was 35 µM, the TGI (SF-539 CNS) was 36 µM and the TGI (LOX IMVI melanoma) was 30 µM. For the same compound, the TGI (SW-620 colon) was 39.7 µM, the TGI (NCI-H522 lung) was 36.3 µM and the TGI (OVCAR-5 ovarian) was 38.2 µM.

`COC(=O)C(Cc1ccc(N(C)C)cc1)(NC(=O)c1ccccc1)P(=O)(OC)OC` (stereo not drawn) was tested, and the TGI (HCC-2998 colon) was > 100 µM, the TGI (SNB-75 CNS) was > 100 µM and the TGI (K-562 leukemia) was > 100 µM. The TGI (OVCAR-8 ovarian) was > 100 µM, the TGI (SF-539 CNS) was > 100 µM and the TGI (LOX IMVI melanoma) was > 100 µM. For the same compound, the TGI (SW-620 colon) was > 100 µM, the TGI (NCI-H522 lung) was > 100 µM and the TGI (OVCAR-5 ovarian) was > 100 µM.

`C=CCOC(OCC=C)/C(Br)=C/C` was tested, and the TGI (HCC-2998 colon) was > 100 µM, the TGI (SNB-75 CNS) was > 100 µM and the TGI (K-562 leukemia) was > 100 µM. The TGI (OVCAR-8 ovarian) was 37 µM, the TGI (PC-3 prostate) was > 100 µM and the TGI (LOX IMVI melanoma) was 39.5 µM. For the same compound, the TGI (SW-620 colon) was > 100 µM and the TGI (OVCAR-5 ovarian) was > 100 µM.

With `Cc1c(Cl)cccc1N=NC(=O)NNc1cccc(Cl)c1C` the TGI (HCC-2998 colon) was 31.1 µM, the TGI (SNB-75 CNS) was 32.5 µM and the TGI (K-562 leukemia) was 40.5 µM. It also gave a TGI (OVCAR-8 ovarian) of 26.6 µM, a TGI (PC-3 prostate) of 26.1 µM and a TGI (LOX IMVI melanoma) of 35.7 µM. The TGI (SW-620 colon) was 30.8 µM, the TGI (NCI-H522 lung) was 39.8 µM and the TGI (OVCAR-5 ovarian) was 27.1 µM.

`O=C(C/C(=N/O)C(F)(F)F)c1cccs1` was tested, and the TGI (HCC-2998 colon) was > 100 µM, the TGI (SNB-75 CNS) was > 100 µM and the TGI (K-562 leukemia) was > 100 µM. For the same compound, the TGI (OVCAR-8 ovarian) was > 100 µM, the TGI (PC-3 prostate) was > 100 µM and the TGI (SF-539 CNS) was > 100 µM. For the same compound, the TGI (LOX IMVI melanoma) was > 100 µM, the TGI (SW-620 colon) was > 100 µM and the TGI (OVCAR-5 ovarian) was > 100 µM.

From PubChem BioAssay (NCI)
